Experiment: In vitro release experiment (Pt by atomic absorption)
Type: physicochemical
Settings: when no interaction with gelatin was created
Method: The thus resulting gelatin sheet of 2×2 cm following impregnation of the aqueous CDDP solution (water content: 97%) was placed in 10 ml of a phosphate buffer (PBS, pH 7.4) containing 0.1% Tween80, and shaken in a 37° C. incubator at 60 rpm/min. At a predetermined time, 5 ml of the supernatant was taken out. The same amount of 0.1% Tween80/PBS was immediately added to the sheet and put back in the incubator. Pt concentration in the samples was quantitatively determined three times using an atomic absorption photometer (Hitachi Model Z-8000, Hitachi, Ltd., Tokyo).

time until CDDP is entirely released: approximately 3 hrs
SMILES: [NH2][Pt]([NH2])([Cl])[Cl] [CDDP, cisplatin]
